Data on 1 compound can be found in ChEMBL document CHEMBL5370605, “Discovery of Novel Fedratinib-Based HDAC/JAK/BRD4 Triple Inhibitors with Remarkable Antitumor Activity against Triple Negative Breast Cancer” (J Med Chem, 2023).

The data set is described as follows: Metabolic stability in mouse liver microsomes assessed as half life in presence of NADPH by LC-MS/MS analysis. It is filed as ADME, Microsome. A general note: Liver microsomes are a subcellular fraction often used to study metabolism.

Regarding `Cc1cnc(Nc2ccc(OCCN3CCCC3)cc2)nc1Nc1ccc(C(=O)NO)cc1`, the half-life (usually the time in which the quantity being followed falls by half) stood at 37.5 min.
